Here are results for five compounds from patent publication US11207312B2, “Metallo-beta-lactamase inhibitors and methods of use thereof” (priority 2017, dated 2021).

Read-outs that look alike come from different tables or passages of the source.

For orientation: IC50 means the point on the concentration scale where inhibition reaches its midpoint.

For series [1], the target named is NDM-1 (Klebsiella pneumoniae, UniProt C7C422). Kind of series: biochemical. The class given is biochemical. The following applies: CCF2-FA fluorescence assay, 2 hours at 25° C. A digest of the protocol:
(§1)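 Metallo-β-lactamase activity read by fluorescence against CCF2-FA (1.25 μM final) in 100 mM KH2PO4 pH 7 with 0.005% Tween-20 and 10 μM ZnSO4; enzyme final at 1 pM NDM-1, 2 pM IMP-1 or 30 pM VIM-1. Inhibitor at 20 to 0.00063 μM, 2 h at 25° C; IC50 by 4-parameter fit.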

Series [2] has as its target IMP-1 (Serratia marcescens, UniProt P52699). The series is described as follows: biochemical. Particulars: CCF2-FA fluorescence assay, 2 hours at 25° C.; read-out: IMP1 IC50. In outline:
as §1

Series [3] deals with VIM-1 (Pseudomonas aeruginosa (strain ATCC 15692 / DSM 22644 / CIP 104116 / JCM 14847 / LMG 12228 / 1C / PRS 101 / PAO1), UniProt A0A0F7KYQ8). The series is described as follows: biochemical. Particulars: CCF2-FA fluorescence assay, 2 hours at 25° C.; read-out: VIM1 IC50. In outline: as §1
Series [4] addresses VIM-2 (Escherichia coli, UniProt Q5U7L7). Kind of series: biochemical.
For series [5], the system named is Escherichia coli expressing NDM-1 (CLB30016). Format: cell-based. The following applies: with imipenem 1 μg/ml; 95% inhibition of bacterial growth. A digest of the protocol: (§2)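 MITC95 denotes the minimal test-compound level that, combined with 1 μg/ml imipenem, blocks 95% of bacterial growth, measured by absorbance. Overnight-grown clinical isolates were diluted 1:100 in CAMHB and incubated with both agents at 35° C for 22–24 h.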

The subject of series [6] is Klebsiella pneumoniae expressing VIM-1 (IHMA599644). Format: cell-based. The following applies: with imipenem 1 μg/ml; 95% inhibition of bacterial growth. In outline: as §2
For series [7], the system named is Serratia marcescens expressing IMP-1 (CL5741). The class given is cell-based. Particulars: with imipenem 1 μg/ml; 95% inhibition of bacterial growth. In outline: as §2
Series [8] deals with P. aeruginosa MB9798 (efflux+, IMP-1 plasmid). Particulars: for MB9798 MITC95 P. aeruginosa uM Efflux WT: efflux + (MB9798) strain, imipenem at 2 μg/mL, in the presence of a class A, C, D serine β-lactamase inhibitor closely related to relebactam; for Efflux ratio: fold difference between efflux+ (MB9798) and efflux− (MB9799) strains. A digest of the protocol: (§3)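 PAO1-derived isogenic pair (oprD+, inducible AmpC), efflux+ MB5919 or efflux− MB5890 parent, carrying an electroporated IMP-1 plasmid from a clinical isolate. Microbroth MIC with fixed imipenem and/or ceftazidime (usually CLSI breakpoint) plus fixed class A/C inhibitor; MBL inhibitor serially titrated, concentration restoring susceptibility recorded.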

In series [9] the test system is P. aeruginosa MB9799 (efflux-, IMP-1 plasmid). The class given is cell-based, Pseudomonas aeruginosa. The following applies: efflux − (MB9799) strain; imipenem at 2 μg/mL; in the presence of a class A, C, D serine β-lactamase inhibitor closely related to relebactam. In outline: as §3
Where [10] appears, read: CCF2-FA fluorescence assay, read-out: VIM2 IC50.

Chain of IMP-1 (P52699 whole entry, looked up, species assumed): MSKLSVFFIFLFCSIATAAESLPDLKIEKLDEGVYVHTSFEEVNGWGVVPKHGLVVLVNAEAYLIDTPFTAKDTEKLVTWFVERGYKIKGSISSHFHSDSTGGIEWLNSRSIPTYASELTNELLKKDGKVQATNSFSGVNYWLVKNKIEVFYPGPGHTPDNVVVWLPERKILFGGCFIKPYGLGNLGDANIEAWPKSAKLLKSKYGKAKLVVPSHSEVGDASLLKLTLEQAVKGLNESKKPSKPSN
Chain of NDM-1 (C7C422 whole entry, looked up, species assumed): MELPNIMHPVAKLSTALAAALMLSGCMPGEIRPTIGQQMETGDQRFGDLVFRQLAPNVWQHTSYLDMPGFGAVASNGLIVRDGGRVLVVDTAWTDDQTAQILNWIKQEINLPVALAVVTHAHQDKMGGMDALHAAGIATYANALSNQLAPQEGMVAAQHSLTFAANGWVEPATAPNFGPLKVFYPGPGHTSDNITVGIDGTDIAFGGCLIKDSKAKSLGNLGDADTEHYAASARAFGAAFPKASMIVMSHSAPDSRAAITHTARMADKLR

Consider `NCCC1CN(c2ccc(S(=O)(=O)NC[C@H](O)CN)c(S(N)(=O)=O)c2-c2nn[nH]n2)C1` [Example 144, (R)-N1-(3-amino-2-hydroxypropyl)-4-(3-(2-aminoethyl)azetidin-1-yl)-3-(2H-tetrazol-5-yl)benzene-1,2-disulfonamide], for which the IC50 in series [1] was 111 nM; in series [2], 89.6 nM; in series [3], 4.23 nM; in series [4] (setting [10]), 200 nM. For the same compound, the “CLB30016 E. coli MITC95 NDM” value in series [5] worked out at 3.13 µM. In [6], the “IHMA599644 K. pneumoniae MITC95 VIM” value came out at 3.13 µM. Further, the “CL5741 S. marcescens MITC95 IMP” value in series [7] is 6.25 µM. Also, in series [8], the “MB9798 MITC95 P. aeruginosa uM Efflux WT” value turned out to be 12.50 µM. Moreover, the Efflux ratio in series [8] was determined as 4.00. Besides, in series [9], the “MB9799 MITC95 P. aeruginosa uM Efflux Mutant” value came out at 3.13 µM.

Consider `NS(=O)(=O)c1c(S(=O)(=O)N[C@@H]2CCNC2)ccc(N2CCC(Cc3ccccn3)CC2)c1-c1nnn[nH]1` [Example 106, 4-[4-(pyridin-2-ylmethyl)piperidin-1-yl]-N1-[(3R)-pyrrolidin-3-yl]-3-(1H-tetrazol-5-yl)benzene-1,2-disulfonamide], for which the IC50 came out at 0.06 nM in series [1], 0.12 nM in [2], 0.1 nM in [3] and 0.46 nM in [4] (setting [10]). For the same compound, the “CLB30016 E. coli MITC95 NDM” value in series [5] is 6.25 µM. For the same compound, the “IHMA599644 K. pneumoniae MITC95 VIM” value in series [6] amounted to 6.25 µM. The “CL5741 S. marcescens MITC95 IMP” value in series [7] came out at 3.13 µM. Besides, the “MB9798 MITC95 P. aeruginosa uM Efflux WT” value in [8] amounted to 50.00 µM. Also, the Efflux ratio in series [8] is 16.00. Moreover, the “MB9799 MITC95 P. aeruginosa uM Efflux Mutant” value in series [9] is 3.13 µM.

As to `NS(=O)(=O)c1c(S(=O)(=O)N[C@@H]2CCNC2)ccc(N2CCC(c3c[nH]cn3)CC2)c1-c1nn[nH]n1` [Example 166, (R)-4-(4-(1H-imidazol-4-yl)piperidin-1-yl)-N1-(pyrrolidin-3-yl)-3-(2H-tetrazol-5-yl)benzene-1,2-disulfonamide], the IC50 in [1] stood at 0.12 nM; in series [2], 0.22 nM; in series [3] it was 0.09 nM; in series [4] (setting [10]) it was 0.53 nM. The “CLB30016 E. coli MITC95 NDM” value in series [5] stood at 0.78 µM. Moreover, the “IHMA599644 K. pneumoniae MITC95 VIM” value in series [6] was 1.56 µM. Further, the “CL5741 S. marcescens MITC95 IMP” value in series [7] was 0.78 µM. In addition, the “MB9798 MITC95 P. aeruginosa uM Efflux WT” value in series [8] is 0.78 µM. In [8], the Efflux ratio is 1.00. Besides, the “MB9799 MITC95 P. aeruginosa uM Efflux Mutant” value in [9] was 0.78 µM.

As for `NCC1(O)CCN(c2ccc(S(=O)(=O)N[C@@H]3CCNC3)c(S(N)(=O)=O)c2-c2nnn[nH]2)CC1` [Example 85, 4-[4-(aminomethyl)-4-hydroxypiperidin-1-yl]-N1-[(3R)-pyrrolidin-3-yl]-3-(1H-tetrazol-5-yl)benzene-1,2-disulfonamide], the IC50 in [1] was found to be 3.15 nM; in series [2] it was 9.94 nM; in [3], 2.13 nM; in [4] (setting [10]), 23.7 nM. Further, the “CLB30016 E. coli MITC95 NDM” value in series [5] is 0.78 µM. Further, the “IHMA599644 K. pneumoniae MITC95 VIM” value in series [6] was found to be 1.56 µM. Moreover, in series [7], the “CL5741 S. marcescens MITC95 IMP” value was determined as 1.56 µM. The “MB9798 MITC95 P. aeruginosa uM Efflux WT” value in series [8] stood at 1.56 µM. In addition, in series [8], the Efflux ratio worked out at 2.00. The “MB9799 MITC95 P. aeruginosa uM Efflux Mutant” value in series [9] was found to be 0.78 µM.

As to `NC[C@@H](O)CNS(=O)(=O)c1ccc(N2CCC(C(N)CO)CC2)c(-c2nn[nH]n2)c1S(N)(=O)=O` (single isomer, unassigned) [Example 180], the IC50 in series [1] is 5.73 nM; in [2] it was 6.3 nM; in series [3] it was 0.44 nM; in series [4] (VIM2 IC50, CCF2-FA fluorescence assay), 5.92 nM. In addition, in [5], the “CLB30016 E. coli MITC95 NDM” value was 0.39 µM. Moreover, the “IHMA599644 K. pneumoniae MITC95 VIM” value in series [6] turned out to be 1.56 µM. Further, the “CL5741 S. marcescens MITC95 IMP” value in series [7] was found to be 0.78 µM. Further, the “MB9798 MITC95 P. aeruginosa uM Efflux WT” value in series [8] came out at 0.78 µM. For the same compound, the Efflux ratio in series [8] came out at 1.00. Further, the “MB9799 MITC95 P. aeruginosa uM Efflux Mutant” value in series [9] was 0.78 µM.
